This is an account of results in patent publication US7906684B2, “Antioxidants” (Merck Patent Gesellschaft Mit Beschrankter Haftung, priority 2006, dated 2011).

Data set [1] in a line: Photoconversion test, substance on roughened Perspex plates, sun simulation. Type of data set: physicochemical. To be noted: 0.75 mg/cm^−2 on roughened Perspex plates, FIG. 1. On the procedure: The substance is applied to roughened Perspex plates (0.75 mg/cm^−2) and irradiated under sun simulation. The dose is to be understood as the absolute, unweighted total UV irradiation dose. After each irradiation step, the UV absorption of the sample is measured against placebo (placebo=Perspex plate with glycerol).

Data set [2] can be described thus: TEAC assay (trolox equivalent antioxidant capacity), Bünger et al. method. To be noted: according to the Bünger et al. method. An excerpt: (§1) A detailed description, besides the […] just described, for the lipid assay (or 2,2′-azobis(2-aminopropane)=ABAP assay) or the TEAC assay (TEAC=trolox equivalent antioxidant capacity) is also found in Bünger et al, International Journal of Cosmetic Science, 2006, 28, 135-146.

The nature of data set [3]: lipid assay (2,2'-azobis(2-aminopropane) = ABAP assay), Bünger et al. method. As to conditions: according to the Bünger et al. method.
Description: as §1

Data set [4] can be described thus: Photoconversion test, 4% solution in isopropyl myristate on Perspex support, simulated solar irradiation. Format: physicochemical. To be noted: 2 μlcm^−2 on rough Perspex, Suntester 1 h 50 min, extracted with isopropanol, made up to 50 ml. As to the method: A 4% solution of the substance in isopropyl myristate is applied at a rate of 2 μlcm^−2 to a rough Perspex support. The sample is subjected to simulated solar irradiation in a Suntester for 1 h 50 min. After irradiation, the sample is extracted with 40 ml of isopropanol and made up to a precise volume of 50 ml. Compared with an unirradiated sample, an increase in absorbance at the substance maximum at 285 nm of 0.77 absorption units arises.

Turning to `COc1ccc(C(O)c2ccccc2)c(O)c1` (stereo not shown) [Compound (5), 2-(hydroxyphenylmethyl)-5-methoxyphenol], in data set [1], the “UV absorption of the sample after irradiation, measured against placebo” value is listed as “increases in absorption power due to irradiation”. The TEAC assay in data set [2] worked out at 50%. Moreover, in data set [3], the lipid assay was 8%.
Turning to `COc1ccc(C(O)c2ccccc2)cc1` (stereo not shown) [Compound (9), (4-methoxyphenyl)phenylmethanol], the “increase in absorbance at the substance maximum at 285 nm compared with an unirradiated sample” value in data set [4] is given as 0.77 absorption units.
